Data reported in US20230143604A1, “QW DOSING OF GIP RECEPTOR AGONIST PEPTIDE COMPOUNDS AND USES THEREOF” (TAKEDA PHARMACEUTICAL COMPANY LIMITED, priority 2020, published 2023).
Starred links: 1 amine or outer side, 2 acyl side, 3 side chain; linkers in the order of their positions; H or OH if unused. Non-standard residues stand in square brackets, D forms with d. Residues, ends and D or L forms follow the SMILES beside them. Groups on a side chain read outwards from the residue. *: point of attachment. C17 diacid = O=C(O)CCCCCCCCCCCCCCCC(=O)*; γGlu = O=C(O)[C@H](CCC(=O)[*:2])N[*:1]; NMeY = CN[C@@H](Cc1ccc(O)cc1)C(=O)O; AEEA = NCCOCCOCC(=O)O; Aib = CC(C)(N)C(=O)O

Experiment: physchem
Method in brief: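 Solubility at pH 7.4 determined by stepwise addition of 200 mM phosphate buffer in 100 μL increments to 3 mg peptide, mixing briefly each time, until no insoluble material remained, then measured by liquid chromatography.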

Compound | solubility (pH 7.4) [mg/mL] | solubility (pH 7.4, aqueous buffer) [mg/mL]
CC[C@H](C)[C@H](NC(=O)[C@H](Cc1ccccc1)NC(=O)[C@@H](NC(=O)CNC(=O)[C@H](CCC(=O)O)NC(=O)C(C)(C)NC(=O)[C@H](Cc1ccc(O)cc1)NC)[C@@H](C)O)C(=O)N[C@@H](CO)C(=O)N[C@@H](CC(=O)O)C(=O)N[C@@H](Cc1ccc(O)cc1)C(=O)N[C@@H](CO)C(=O)N[C@H](C(=O)NC(C)(C)C(=O)N[C@@H](CC(C)C)C(=O)N[C@@H](CC(=O)O)C(=O)N[C@@H](CCCNC(=N)N)C(=O)NC(C)(C)C(=O)N[C@@H](C)C(=O)N[C@@H](CCC(N)=O)C(=O)NC(C)(C)C(=O)N[C@@H](CCCCNC(=O)COCCOCCNC(=O)COCCOCCNC(=O)CC[C@H](NC(=O)CC[C@H](NC(=O)CCCCCCCCCCCCCCCC(=O)O)C(=O)O)C(=O)O)C(=O)N[C@@H](Cc1ccccc1)C(=O)N[C@H](C(=O)N[C@@H](CC(N)=O)C(=O)N[C@@H](Cc1c[nH]c2ccccc12)C(=O)N[C@@H](CC(C)C)C(=O)N[C@@H](CC(C)C)C(=O)N[C@@H](C)C(=O)N[C@@H](CCC(N)=O)C(=O)N[C@@H](CO)C(=O)N1CCC[C@H]1C(=O)NCC(=O)O)C(C)C)[C@@H](C)CC [Compound 126] (H-[NMeY][Aib]EGTFISDYSI[Aib]LDR[Aib]AQ[Aib]K([AEEA-AEEA-γGlu-γGlu-C17 diacid])FVNWLLAQSPG-OH) | ≥ 15 | ≥ 30
CC[C@H](C)[C@H](NC(=O)[C@H](Cc1ccccc1)NC(=O)[C@@H](NC(=O)CNC(=O)[C@H](CCC(=O)O)NC(=O)C(C)(C)NC(=O)[C@H](Cc1ccc(O)cc1)NC)[C@@H](C)O)C(=O)N[C@@H](CO)C(=O)N[C@@H](CC(=O)O)C(=O)N[C@@H](Cc1ccc(O)cc1)C(=O)N[C@@H](CO)C(=O)N[C@H](C(=O)NC(C)(C)C(=O)N[C@@H](CC(C)C)C(=O)N[C@@H](CC(=O)O)C(=O)N[C@@H](CCCNC(=N)N)C(=O)NC(C)(C)C(=O)N[C@@H](C)C(=O)N[C@@H](CCC(N)=O)C(=O)NC(C)(C)C(=O)N[C@@H](CCCCNC(=O)COCCOCCNC(=O)COCCOCCNC(=O)CC[C@H](NC(=O)CC[C@H](NC(=O)CCCCCCCCCCCCCCCC(=O)O)C(=O)O)C(=O)O)C(=O)N[C@@H](Cc1ccccc1)C(=O)N[C@H](C(=O)N[C@@H](CC(N)=O)C(=O)N[C@@H](Cc1c[nH]c2ccccc12)C(=O)N[C@@H](CC(C)C)C(=O)N[C@@H](CC(C)C)C(=O)N[C@@H](C)C(=O)N[C@@H](CCC(N)=O)C(=O)N[C@@H](CCCNC(=N)N)C(=O)NCC(=O)O)C(C)C)[C@@H](C)CC [Compound 127] (H-[NMeY][Aib]EGTFISDYSI[Aib]LDR[Aib]AQ[Aib]K([AEEA-AEEA-γGlu-γGlu-C17 diacid])FVNWLLAQRG-OH) | ≥ 15 | ≥ 30
CC[C@H](C)[C@H](NC(=O)[C@H](CCCCN)NC(=O)[C@H](CC(=O)O)NC(=O)[C@H](CC(C)C)NC(=O)C(C)(C)NC(=O)[C@@H](NC(=O)[C@H](CO)NC(=O)[C@H](Cc1ccc(O)cc1)NC(=O)[C@H](CC(=O)O)NC(=O)[C@H](CO)NC(=O)[C@@H](NC(=O)[C@H](Cc1ccccc1)NC(=O)[C@@H](NC(=O)CNC(=O)[C@H](CCC(=O)O)NC(=O)C(C)(C)NC(=O)[C@@H](N)Cc1ccc(O)cc1)[C@@H](C)O)[C@@H](C)CC)[C@@H](C)CC)C(=O)N[C@@H](C)C(=O)N[C@@H](CCC(N)=O)C(=O)N[C@@H](CCC(N)=O)C(=O)N[C@@H](CCCCNC(=O)COCCOCCNC(=O)COCCOCCNC(=O)CC[C@H](NC(=O)CC[C@H](NC(=O)CCCCCCCCCCCCCCCC(=O)O)C(=O)O)C(=O)O)C(=O)N[C@@H](Cc1ccccc1)C(=O)N[C@H](C(=O)N[C@@H](CCC(=O)O)C(=O)N[C@@H](Cc1c[nH]c2ccccc12)C(=O)N[C@@H](CC(C)C)C(=O)N[C@@H](CC(C)C)C(=O)N[C@@H](C)C(=O)N[C@@H](CCC(N)=O)C(=O)N[C@@H](CCCNC(=N)N)C(=O)NCC(=O)O)C(C)C [Compound 129] (H-Y[Aib]EGTFISDYSI[Aib]LDKIAQQK([AEEA-AEEA-γGlu-γGlu-C17 diacid])FVEWLLAQRG-OH) | ≥ 15 | ≥ 30
CC[C@H](C)[C@H](NC(=O)[C@H](CO)NC(=O)[C@H](Cc1ccc(O)cc1)NC(=O)[C@H](CC(=O)O)NC(=O)[C@H](CO)NC(=O)[C@@H](NC(=O)[C@H](Cc1ccccc1)NC(=O)[C@@H](NC(=O)CNC(=O)[C@H](CCC(=O)O)NC(=O)C(C)(C)NC(=O)[C@@H](N)Cc1ccc(O)cc1)[C@@H](C)O)[C@@H](C)CC)C(=O)N[C@@H](C)C(=O)N[C@@H](CC(C)C)C(=O)N[C@@H](CC(=O)O)C(=O)N[C@@H](CCCCN)C(=O)NC(C)(C)C(=O)N[C@@H](C)C(=O)N[C@@H](CCC(N)=O)C(=O)N[C@@H](CCC(N)=O)C(=O)N[C@@H](CCCCNC(=O)COCCOCCNC(=O)COCCOCCNC(=O)CC[C@H](NC(=O)CC[C@H](NC(=O)CCCCCCCCCCCCCCCC(=O)O)C(=O)O)C(=O)O)C(=O)N[C@@H](Cc1ccccc1)C(=O)N[C@H](C(=O)N[C@@H](CCC(=O)O)C(=O)N[C@@H](Cc1c[nH]c2ccccc12)C(=O)N[C@@H](CC(C)C)C(=O)N[C@@H](CC(C)C)C(=O)N[C@@H](C)C(=O)N[C@@H](CCC(N)=O)C(=O)N[C@@H](CCCNC(=N)N)C(=O)NCC(=O)O)C(C)C [Compound 130] (H-Y[Aib]EGTFISDYSIALDK[Aib]AQQK([AEEA-AEEA-γGlu-γGlu-C17 diacid])FVEWLLAQRG-OH) | ≥ 15 | ≥ 30
CC[C@H](C)[C@H](NC(=O)[C@H](CO)NC(=O)[C@H](Cc1ccc(O)cc1)NC(=O)[C@H](CC(=O)O)NC(=O)[C@H](CO)NC(=O)[C@@H](NC(=O)[C@H](Cc1ccccc1)NC(=O)[C@@H](NC(=O)CNC(=O)[C@H](CCC(=O)O)NC(=O)C(C)(C)NC(=O)[C@@H](N)Cc1ccc(O)cc1)[C@@H](C)O)[C@@H](C)CC)C(=O)N[C@@H](C)C(=O)N[C@@H](CC(C)C)C(=O)N[C@@H](CC(=O)O)C(=O)N[C@@H](CCCCN)C(=O)NC(C)(C)C(=O)N[C@@H](C)C(=O)N[C@@H](CCC(N)=O)C(=O)N[C@@H](C)C(=O)N[C@@H](CCCCNC(=O)COCCOCCNC(=O)COCCOCCNC(=O)CC[C@H](NC(=O)CC[C@H](NC(=O)CCCCCCCCCCCCCCCC(=O)O)C(=O)O)C(=O)O)C(=O)N[C@@H](Cc1ccccc1)C(=O)N[C@H](C(=O)N[C@@H](CCC(=O)O)C(=O)N[C@@H](Cc1c[nH]c2ccccc12)C(=O)N[C@@H](CC(C)C)C(=O)N[C@@H](CC(C)C)C(=O)N[C@@H](C)C(=O)N[C@@H](CCC(N)=O)C(=O)N[C@@H](CCCNC(=N)N)C(=O)NCC(=O)O)C(C)C [Compound 131] (H-Y[Aib]EGTFISDYSIALDK[Aib]AQAK([AEEA-AEEA-γGlu-γGlu-C17 diacid])FVEWLLAQRG-OH) | ≥ 15 | ≥ 30
CC[C@H](C)[C@H](NC(=O)[C@H](CCCCN)NC(=O)[C@H](CC(=O)O)NC(=O)[C@H](CC(C)C)NC(=O)[C@H](C)NC(=O)[C@@H](NC(=O)[C@H](CO)NC(=O)[C@H](Cc1ccc(O)cc1)NC(=O)[C@H](CC(=O)O)NC(=O)[C@H](CO)NC(=O)[C@@H](NC(=O)[C@H](Cc1ccccc1)NC(=O)[C@@H](NC(=O)CNC(=O)[C@H](CCC(=O)O)NC(=O)C(C)(C)NC(=O)[C@@H](N)Cc1ccc(O)cc1)[C@@H](C)O)[C@@H](C)CC)[C@@H](C)CC)C(=O)N[C@@H](C)C(=O)N[C@@H](CCC(N)=O)C(=O)NC(C)(C)C(=O)N[C@@H](CCCCNC(=O)COCCOCCNC(=O)COCCOCCNC(=O)CC[C@H](NC(=O)CC[C@H](NC(=O)CCCCCCCCCCCCCCCC(=O)O)C(=O)O)C(=O)O)C(=O)N[C@@H](Cc1ccccc1)C(=O)N[C@H](C(=O)N[C@@H](CCC(=O)O)C(=O)N[C@@H](Cc1c[nH]c2ccccc12)C(=O)N[C@@H](CC(C)C)C(=O)N[C@@H](CC(C)C)C(=O)N[C@@H](C)C(=O)N[C@@H](CCC(N)=O)C(=O)N[C@@H](CCCNC(=N)N)C(=O)NCC(=O)O)C(C)C [Compound 132] (H-Y[Aib]EGTFISDYSIALDKIAQ[Aib]K([AEEA-AEEA-γGlu-γGlu-C17 diacid])FVEWLLAQRG-OH) | ≥ 15 | ≥ 30
CC[C@H](C)[C@H](NC(=O)[C@H](CO)NC(=O)[C@H](Cc1ccc(O)cc1)NC(=O)[C@H](CC(=O)O)NC(=O)[C@H](CO)NC(=O)[C@@H](NC(=O)[C@H](Cc1ccccc1)NC(=O)[C@@H](NC(=O)CNC(=O)[C@H](CCC(=O)O)NC(=O)C(C)(C)NC(=O)[C@@H](N)Cc1ccc(O)cc1)[C@@H](C)O)[C@@H](C)CC)C(=O)N[C@@H](C)C(=O)N[C@@H](CC(C)C)C(=O)N[C@@H](CC(=O)O)C(=O)N[C@@H](CCCCN)C(=O)N[C@@H](C)C(=O)N[C@@H](C)C(=O)N[C@@H](CCC(N)=O)C(=O)NC(C)(C)C(=O)N[C@@H](CCCCNC(=O)COCCOCCNC(=O)COCCOCCNC(=O)CC[C@H](NC(=O)CC[C@H](NC(=O)CCCCCCCCCCCCCCCC(=O)O)C(=O)O)C(=O)O)C(=O)N[C@@H](Cc1ccccc1)C(=O)N[C@H](C(=O)N[C@@H](CCC(=O)O)C(=O)N[C@@H](Cc1c[nH]c2ccccc12)C(=O)N[C@@H](CC(C)C)C(=O)N[C@@H](CC(C)C)C(=O)N[C@@H](C)C(=O)N[C@@H](CCC(N)=O)C(=O)N[C@@H](CCCNC(=N)N)C(=O)NCC(=O)O)C(C)C [Compound 133] (H-Y[Aib]EGTFISDYSIALDKAAQ[Aib]K([AEEA-AEEA-γGlu-γGlu-C17 diacid])FVEWLLAQRG-OH) | ≥ 15 | ≥ 30
